Measured values published in PubChem BioAssay AID2060894 (Molecular Pharmacology Branch, DTP, NCI, 2025).

Test system: K12877-001-R-J1-PDC complex spheroid viability
Assay: Anticancer human tumor K12877-001-R-J1-PDC patient-derived lung adenocarcinoma cell line growth inhibition [RAS]
Conditions: for IC50: curve of first compound; for viability, T/C: stronger effect = lower value
How it was run: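 Tumour cells grown as complex spheroids with HUVEC endothelial cells and mesenchymal stem cells, treated with RAS pathway inhibitor combinations. Each agent spans half-log steps from near clinical Cmax, or 10 microM where Cmax is unknown.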
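Note: spheroids exposed to agents for one week before readout.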
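Throughout, for viability, T/C: tumour cells co-cultured with HUVEC and mesenchymal stem cells in spheroids.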

## CCc1c2c(nc3ccc(O)cc13)-c1cc3c(c(=O)n1C2)COC(=O)[C@]3(O)CC + CCn1c(-c2cc(N3CCN(C)CC3)cnc2C(C)OC)c2c3cc(ccc31)-c1csc(n1)CC(NC(=O)C1CC1C)C(=O)N1CCCC(N1)C(=O)OCC(C)(C)C2
Second compound 0.000949 µM
  IC50: 4.82 nM
Second compound 0.003 µM
  IC50: 4.39 nM
Second compound 0.00949 µM
  IC50: 3.87 nM
Second compound 0.03 µM
  IC50: 4.32 nM
Second compound 0.0949 µM
  IC50: 3.81 nM
Second compound 0.3 µM
  IC50: 2.73 nM
Second compound 0.000949 µM, first compound 0.000949 µM
  viability, T/C: 78.3%
Second compound 0.000949 µM, first compound 0.003 µM
  viability, T/C: 72.4%
Second compound 0.000949 µM, first compound 0.00949 µM
  viability, T/C: 18.2%
Second compound 0.000949 µM, first compound 0.03 µM
  viability, T/C: 7.02%
Second compound 0.000949 µM, first compound 0.0949 µM
  viability, T/C: 3.48%
Second compound 0.000949 µM, first compound 0.3 µM
  viability, T/C: 2.43%
Second compound 0.003 µM, first compound 0.000949 µM
  viability, T/C: 67.2%
Second compound 0.003 µM, first compound 0.003 µM
  viability, T/C: 68.8%
Second compound 0.003 µM, first compound 0.00949 µM
  viability, T/C: 13.6%
Second compound 0.003 µM, first compound 0.03 µM
  viability, T/C: 6.6%
Second compound 0.003 µM, first compound 0.0949 µM
  viability, T/C: 4.13%
Second compound 0.003 µM, first compound 0.3 µM
  viability, T/C: 2.12%
Second compound 0.00949 µM, first compound 0.000949 µM
  viability, T/C: 71.6%
Second compound 0.00949 µM, first compound 0.003 µM
  viability, T/C: 59.8%
Second compound 0.00949 µM, first compound 0.00949 µM
  viability, T/C: 15.8%
Second compound 0.00949 µM, first compound 0.03 µM
  viability, T/C: 6.3%
Second compound 0.00949 µM, first compound 0.0949 µM
  viability, T/C: 3.36%
Second compound 0.00949 µM, first compound 0.3 µM
  viability, T/C: 1.64%
Second compound 0.03 µM, first compound 0.000949 µM
  viability, T/C: 84.9%
Second compound 0.03 µM, first compound 0.003 µM
  viability, T/C: 67.8%
Second compound 0.03 µM, first compound 0.00949 µM
  viability, T/C: 11.5%
Second compound 0.03 µM, first compound 0.03 µM
  viability, T/C: 6.66%
Second compound 0.03 µM, first compound 0.0949 µM
  viability, T/C: 2.86%
Second compound 0.03 µM, first compound 0.3 µM
  viability, T/C: 1.43%
Second compound 0.0949 µM, first compound 0.000949 µM
  viability, T/C: 94.8%
Second compound 0.0949 µM, first compound 0.003 µM
  viability, T/C: 59.5%
Second compound 0.0949 µM, first compound 0.00949 µM
  viability, T/C: 13.8%
Second compound 0.0949 µM, first compound 0.03 µM
  viability, T/C: 5.27%
Second compound 0.0949 µM, first compound 0.0949 µM
  viability, T/C: 3.05%
Second compound 0.0949 µM, first compound 0.3 µM
  viability, T/C: 1.38%
Second compound 0.3 µM, first compound 0.000949 µM
  viability, T/C: 85.1%
Second compound 0.3 µM, first compound 0.003 µM
  viability, T/C: 46.9%
Second compound 0.3 µM, first compound 0.00949 µM
  viability, T/C: 9.52%
Second compound 0.3 µM, first compound 0.03 µM
  viability, T/C: 4.79%
Second compound 0.3 µM, first compound 0.0949 µM
  viability, T/C: 3.58%
Second compound 0.3 µM, first compound 0.3 µM
  viability, T/C: 1.11%

## C=CC(=O)Nc1cc(Nc2nccc(-c3cn(C)c4ccccc34)n2)c(OC)cc1N(C)CCN(C)C + CCn1c(-c2cccnc2C(C)OC)c2c3cc(ccc31)N1CCOC(CC(NC(=O)C(C(C)C)N(C)C(=O)C3(F)CCN(C(=O)C#CC(C)(C)N(C)C)CC3)C(=O)N3CCCC(N3)C(=O)OCC(C)(C)C2)C1
Second compound 0.000949 µM
  IC50: > 1000 nM
Second compound 0.003 µM
  IC50: > 1000 nM
Second compound 0.00949 µM
  IC50: > 1000 nM
Second compound 0.03 µM
  IC50: > 1000 nM
Second compound 0.0949 µM
  IC50: > 1000 nM
Second compound 0.3 µM
  IC50: > 1000 nM
Second compound 0.000949 µM, first compound 0.00316 µM
  viability, T/C: 90.4%
Second compound 0.000949 µM, first compound 0.01 µM
  viability, T/C: 75.9%
Second compound 0.000949 µM, first compound 0.0316 µM
  viability, T/C: 85.4%
Second compound 0.000949 µM, first compound 0.1 µM
  viability, T/C: 78.5%
Second compound 0.000949 µM, first compound 0.316 µM
  viability, T/C: 78%
Second compound 0.000949 µM, first compound 1 µM
  viability, T/C: 69.8%
Second compound 0.003 µM, first compound 0.00316 µM
  viability, T/C: 78.2%
Second compound 0.003 µM, first compound 0.01 µM
  viability, T/C: 75.2%
Second compound 0.003 µM, first compound 0.0316 µM
  viability, T/C: 69.3%
Second compound 0.003 µM, first compound 0.1 µM
  viability, T/C: 70.5%
Second compound 0.003 µM, first compound 0.316 µM
  viability, T/C: 74.3%
Second compound 0.003 µM, first compound 1 µM
  viability, T/C: 70.3%
Second compound 0.00949 µM, first compound 0.00316 µM
  viability, T/C: 82.3%
Second compound 0.00949 µM, first compound 0.01 µM
  viability, T/C: 65%
Second compound 0.00949 µM, first compound 0.0316 µM
  viability, T/C: 75.1%
Second compound 0.00949 µM, first compound 0.1 µM
  viability, T/C: 71%
Second compound 0.00949 µM, first compound 0.316 µM
  viability, T/C: 71.6%
Second compound 0.00949 µM, first compound 1 µM
  viability, T/C: 62.7%
Second compound 0.03 µM, first compound 0.00316 µM
  viability, T/C: 80.5%
Second compound 0.03 µM, first compound 0.01 µM
  viability, T/C: 73.2%
Second compound 0.03 µM, first compound 0.0316 µM
  viability, T/C: 78.7%
Second compound 0.03 µM, first compound 0.1 µM
  viability, T/C: 79%
Second compound 0.03 µM, first compound 0.316 µM
  viability, T/C: 64.5%
Second compound 0.03 µM, first compound 1 µM
  viability, T/C: 65%
Second compound 0.0949 µM, first compound 0.00316 µM
  viability, T/C: 67.2%
Second compound 0.0949 µM, first compound 0.01 µM
  viability, T/C: 72.7%
Second compound 0.0949 µM, first compound 0.0316 µM
  viability, T/C: 74%
Second compound 0.0949 µM, first compound 0.1 µM
  viability, T/C: 69.5%
Second compound 0.0949 µM, first compound 0.316 µM
  viability, T/C: 63.5%
Second compound 0.0949 µM, first compound 1 µM
  viability, T/C: 48.5%
Second compound 0.3 µM, first compound 0.00316 µM
  viability, T/C: 69.8%
Second compound 0.3 µM, first compound 0.01 µM
  viability, T/C: 67%
Second compound 0.3 µM, first compound 0.0316 µM
  viability, T/C: 71.2%
Second compound 0.3 µM, first compound 0.1 µM
  viability, T/C: 70.2%
Second compound 0.3 µM, first compound 0.316 µM
  viability, T/C: 58.7%
Second compound 0.3 µM, first compound 1 µM
  viability, T/C: 52.8%
